In one data set the test system is brain ChE. The data set can be described thus: brain ChE activity in parathion-treated rats. In kind it is in vivo, rat.
The format of data set [1] is in vivo, rat. Conditions: after parathion 8 mg/kg oral; 60 min.
A further data set has as its system rat. Conditions: ref Gaines, 1960; cited from earlier work.
The test system of a further data set is female Long-Evans rats. Conditions: out of 5 rats dosed with parathion 8 mg/kg oral; 60 min.
Substrate in data set [2]: CC1=CC(=O)c2ccccc2C1=O
The experiment in a line: CPR-mediated redox cycling, H2O2 formation. It counts as biochemical, human. Conditions: other: menadione as redox cycling substrate of CPR; Amplex Red; pH 7.8; 37.0 °C.

Substrate in data set [3]: CC1=CC(=O)c2ccccc2C1=O
The data set can be described thus: CPR-mediated redox cycling, hydroxyl radical formation. It counts as biochemical, human. Conditions: other: menadione; Fe/EDTA, terephthalate; pH 7.8; 37.0 °C.

Setting [4] is: parathion 8 mg/kg oral gavage alone, 60 min.

Turning to `CC1(S(=O)(=O)[O-])CC(=O)c2ccccc2C1=O.[Na+]` (centres unmarked) [menadione bisulfite], the “parathion-induced inhibition of brain cholinesterase activity” value with brain ChE (menadione bisulfite 40 mg/kg, ip) is listed as “reduced”.
Regarding `CCOP(=O)(OCC)Oc1ccc([N+](=O)[O-])cc1` [paraoxon, diethyl 4-nitrophenyl phosphate], the “paraoxon levels in serum, liver and brain” value in data set [1] is recorded as “could not be detected”.
Regarding `CCOP(=S)(OCC)Oc1ccc([N+](=O)[O-])cc1` [parathion, diethyl 4-nitrophenyl phosphorothionate], the “rat oral LD50” value in the data set with rat was 2 to 13 mg/kg. In addition, the “rats that died before the end of the observation period” value in the data set on female Long-Evans rats is 1. Further, in the data set with brain ChE (setting [4]), the “forebrain ChE activity inhibited” value is 95% and the “hindbrain ChE activity inhibited” value worked out at 87%.

B1: recombinant human CPR (Homo sapiens) (protein)
chain: MGDSHVDTSSTVSEAVAEEVSLFSMTDMILFSLIVGLLTYWFLFRKKKEEVPEFTKIQTLTSSVRESSFVEKMKKTGRNIIVFYGSQTGTAEEFANRLSKDAHRYGMRGMSADPEEYDLADLSSLPEIDNALVVFCMATYGEGDPTDNAQDFYDWLQETDVDLSGVKFAVFGLGNKTYEHFNAMGKYVDKRLEQLGAQRIFELGLGDDDGNLEEDFITWREQFWPAVCEHFGVEATGEESSIRQYELVVHTDIDAAKVYMGEMGRLKSYENQKPPFDAKNPFLAAVTTNRKLNQGTERHLMHLELDISDSKIRYESGDHVAVYPANDSALVNQLGKILGADLDVVMSLNNLDEESNKKHPFPCPTSYRTALTYYLDITNPPRTNVLYELAQYASEPSEQELLRKMASSSGEGKELYLSWVVEARRHILAILQDCPSLRPPIDHLCELLPRLQARYYSIASSSKVHPNSVHICAVVVEYETKAGRINKGVATNWLRAKEPAGENGGRALVPMFVRKSQFRLPFKATTPVIMVGPGTGVAPFIGFIQERAWLRQQGKEVGETLLYYGCRRSDEDYLYREELAQFHRDGALTQLNVAFSREQSHKVYVQHLLKQDREHLWKLIEGGAHIYVCGDARNMARDVQNTFYDIVAELGAMEHAQAVDYIKKLMTKGRYSLDVWS
By Km is commonly meant the substrate concentration at which the rate is half of its maximum. For the molecule B1, the results for the Km in data set [2] and in data set [3] were 4.1 µM and 1.7 µM, respectively.

Values taken from paper PMC4579064 (Toxicology and applied pharmacology, 2015).
